The record followed here is patent US20170252346A1, “PHARMACEUTICAL COMPOSITION FOR THE TREATMENT OF ACUTE TOOTH OR JAW PAIN” (SANOFI-AVENTIS DEUTSCHLAND GMBH, priority 2014, published 2017).

This experiment has as its system patients with post-operative dental pain. Description: Single-center, randomized, two-stage, parallel-group double-blind clinical study of single-dose efficacy and safety in post-operative dental pain. The conditions noted are these: ibuprofen 400 mg, caffeine 100 mg. The format is in vivo, human. On the procedure: Clinical trials are performed in patients using the tablets produced according to example 1 and using the following study design:
Secondary goal: Evaluation of the efficacy and safety of multiple doses of the fixed combination compared with ibuprofen alone over a post-operative time period of 5 days (study stage 2).
Male and female patients between the ages of 18 and 55 years, scheduled for the extraction of 3 to 4 unsound wisdom teeth, with at least 2 extracted molars were recruited; the baseline of dental pain intensity must be at least moderate on a verbal evaluation scale and at least 5 on a numerical evaluation scale ranging from 0 to 10.
Following surgery, one tablet every 6-8 hours for 5 days has been administered.
The time-weighted sum of pain relief (PAR) and the difference in pain intensity (PID) from 0 to 8 hours (SPRID0-8H)
Secondary Endpoint • The time-weighted sum of PAR and PID from 0 to 2 hours (SPRID0-2H) • Duration of pain relief • Time to significant pain relief
The pain intensity (PI) was evaluated in a diary before administration and at 0.25, 0.5, 0.75, 1, 1.5, 2, 3, 4, 5, 6, 7 and 8 hours after the first dose of the study medication using an 11-point numerical rating scale (NPRS) from 0=“no pain” to 10=“worst possible pain”.
The pain relief (PAR) beginning from pain onset was evaluated in a patient diary using a 5-point rating scale (VRS) (0=no pain relief; 1=a little pain relief; 2=some pain relief; 3=much pain relief; 4=complete pain relief) at the same time points as for the PI evaluation.
As soon as a patient needed an emergency medication or a second dose of the medication within less than 8 hours, PI and PAR were evaluated before the emergency medication or second dose was administered.
The time-weighted sum of pain relief (PAR) and the pain intensity difference (PID) relative to baseline between 0 and 8 hours is determined as follows:
PID=PI at baseline−PI at the specific time point (here, higher PID values represent greater benefit for the patient).
Higher values of the SPRID0-8 h likewise indicate greater benefit for the patient.

[1] abbreviates: Kaplan-Meyer analysis, single dose.

With `CC(C)Cc1ccc(C(C)C(=O)O)cc1` (racemic) [Ibuprofen, (+/−) 2-(p-isobutylphenyl)-propionic acid], under setting [1], the “Mean time to obtain relief (time to significant/meaningful pain relief)” value came out at 2.5 h and the “Median duration of action” value was 7.1 h. Also, the “Adjusted Mean SPRID0-2h value” (time-weighted sum of PAR and PID 0 to 2 hours after single dose) is 6.990. For the same compound, under “time-weighted sum of pain relief (PAR) and pain intensity difference (PID) 0 to 8 hours after single dose, study stage 1”, the “Adjusted Mean SPRID0-8h value” amounted to 40.165.
